For this assay, the target named is melatonin receptor. Briefly: Inhibition of 2-[^125 I]iodomelatonin binding in forebrain homogenate of 7-day-old chicken. On the set-up: species or system chicken (white leghorn). The following applies: 80 pM 2-[^125 I]iodomelatonin, 90 minutes at 25° C., 7-day-old chicken forebrain homogenate, log-probit analysis; read-out: IC50, action of inhibiting 2-[^125 I]iodomelatonin binding. The method, then: The farebrains of 7-day-old chicken (white leghorn) were homogenized with ice-cold assay buffer (50 mM Tris-HCl, pH 7.7 at 25° C.) and centrifuged at 44,000×g for 10 minutes at 4° C. The pellet was washed once with the same buffer and stored at -30° C. until use. For the assay, the frozen tissue pellet was thawed and homogenized with the assay buffer to make a protein concentration of 0.3-0.4 mg/ml. […] The reaction was terminated by adding 3 ml of ice-cold assay buffer immediately followed by vacuum filtration on Whatman GF/B which was further washed twice with 3 ml of ice-cold assay buffer. The radioactivity on the filter was determined by means of γ-counter.
A word on the IC50: it is the concentration needed to halve the response being measured. On to `COc1ccc2c(c1)/C(=C/CNC(=O)C(F)(F)F)CCC2` [compound 33], for which the IC50 was 0.72 nM.

Regarding `COc1ccc2c(c1)[C@H](CCNC(C)=O)CC2` [compound 66], the IC50 was 0.7 nM.

Turning to `CC(=O)NCCC1CCCc2ccc(O)cc21` (stereo not drawn) [compound 35], the half-inhibitory concentration (IC50) is 0.95 nM.

Source of the values: patent US6235789A, “Benzocycloalkene compounds, their production and use” (Takeda Chemical Industries, Ltd., priority 1994, dated 2001).
